How the values were obtained:
[1] = biological target: full-length (wild-type) AtCRY1 (Arabidopsis thaliana, UniProt Q43125); details: FAD-bound full-length protein; details only in supplement
AtCRY1 PHR = AtCRY1 PHR (Arabidopsis thaliana, UniProt Q43125); assay: biochemical
Chain of AtCRY1 PHR (Q43125 1-509): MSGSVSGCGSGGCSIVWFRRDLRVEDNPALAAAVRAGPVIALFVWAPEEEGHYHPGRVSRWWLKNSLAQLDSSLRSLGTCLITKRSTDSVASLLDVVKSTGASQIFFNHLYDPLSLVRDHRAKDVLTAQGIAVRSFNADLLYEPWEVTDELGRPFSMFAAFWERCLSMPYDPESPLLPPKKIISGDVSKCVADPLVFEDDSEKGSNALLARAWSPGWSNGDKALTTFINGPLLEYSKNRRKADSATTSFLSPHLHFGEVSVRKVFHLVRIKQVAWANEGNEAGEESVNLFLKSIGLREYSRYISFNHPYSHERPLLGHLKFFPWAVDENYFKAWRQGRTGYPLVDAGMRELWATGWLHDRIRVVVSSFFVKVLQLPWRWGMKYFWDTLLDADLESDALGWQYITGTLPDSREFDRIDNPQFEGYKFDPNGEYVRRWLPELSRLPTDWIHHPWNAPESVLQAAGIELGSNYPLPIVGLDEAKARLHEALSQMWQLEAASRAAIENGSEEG

Chain of full-length (wild-type) AtCRY1 (Q43125 whole entry): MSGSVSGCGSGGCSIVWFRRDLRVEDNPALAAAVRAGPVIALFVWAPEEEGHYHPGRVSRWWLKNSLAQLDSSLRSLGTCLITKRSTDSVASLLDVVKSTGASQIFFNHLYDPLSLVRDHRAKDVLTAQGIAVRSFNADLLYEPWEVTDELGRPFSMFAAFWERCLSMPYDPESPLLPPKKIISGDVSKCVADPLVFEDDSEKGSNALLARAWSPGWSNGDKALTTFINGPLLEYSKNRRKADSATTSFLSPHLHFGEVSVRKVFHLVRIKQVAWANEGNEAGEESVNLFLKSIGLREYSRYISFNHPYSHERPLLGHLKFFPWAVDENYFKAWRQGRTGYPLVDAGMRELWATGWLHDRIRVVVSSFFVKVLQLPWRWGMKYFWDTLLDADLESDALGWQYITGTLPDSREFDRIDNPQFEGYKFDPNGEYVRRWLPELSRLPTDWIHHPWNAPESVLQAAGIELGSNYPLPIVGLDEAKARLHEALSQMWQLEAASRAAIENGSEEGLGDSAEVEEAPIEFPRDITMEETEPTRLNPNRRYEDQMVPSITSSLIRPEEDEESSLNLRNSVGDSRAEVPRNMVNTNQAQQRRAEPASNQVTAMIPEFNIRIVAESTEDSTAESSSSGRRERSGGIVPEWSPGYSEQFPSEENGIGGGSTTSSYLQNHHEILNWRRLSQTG

- Kd (AtCRY1 PHR): 1400 ± 600 nM
Compound: Nc1ncnc2c1ncn2[C@@H]1O[C@H](COP(=O)(O)OP(=O)(O)OP(=O)(O)O)[C@@H](O)[C@H]1O [ATP]
- UV-Vis and transient absorption with ATP (control experiments) [1]: we have not found any significant differences in their photoreactions

— publication PMC4046262 (Scientific Reports, 2014)
